Earlier results, collected in patent US10729636B2, “Compositions comprising peptide [sequence]” (NURITAS LIMITED, priority 2016, dated 2020).
Like-named read-outs stand apart in the source and are kept apart here.

What was measured:
[1] = cited from earlier work
lipoproteins = settings: binding to lipoproteins; cited from earlier work
[2] = humans who took more vitamin E on a regular basis vs those who took less; study on nurses; cited from earlier work

Compound	half-life ([1]; in words)	half-life ([1]; in humans)	also measured
CCNC(=O)[C@@H]1CCCN1C(=O)[C@H](CCCNC(=N)N)NC(=O)[C@H](CC(C)C)NC(=O)[C@@H](COC(C)(C)C)NC(=O)[C@H](Cc1ccc(O)cc1)NC(=O)[C@H](CO)NC(=O)[C@H](Cc1c[nH]c2ccccc12)NC(=O)[C@H](Cc1cnc[nH]1)NC(=O)[C@@H]1CCC(=O)N1 [buserelin]	much longer	–	–
C[C@@H](O)[C@@H]1NC(=O)[C@H](CCCCN)NC(=O)[C@@H](Cc2c[nH]c3ccccc23)NC(=O)[C@H](Cc2ccccc2)NC(=O)[C@@H](NC(=O)[C@H](N)Cc2ccccc2)CSSC[C@@H](C(=O)N[C@H](CO)[C@@H](C)O)NC1=O [octreotide]	–	about 100 min	fraction unbound (lipoproteins): 0.65
NC(=O)CC[C@@H]1NC(=O)[C@H](Cc2ccccc2)NC(=O)[C@H](Cc2ccc(O)cc2)NC(=O)[C@@H](N)CSSC[C@@H](C(=O)N2CCC[C@H]2C(=O)N[C@@H](CCCN=C(N)N)C(=O)NCC(N)=O)NC(=O)[C@H](CC(N)=O)NC1=O [vasopressin]	–	10 to 35 min	–
gonadotropin-releasing hormone	very short	–	–
vitamin E	–	–	lower incidence of heart disease [2]: 41%
